We go through five molecules from article PMC6515058 (International Journal of Molecular Sciences, 2019).

The structures appear in SMILES notation. Read-outs that look alike come from different tables or passages of the source.

One data set deals with chicken intestinal P-gp. Put plainly: In situ single-pass intestinal perfusion of Rho123 in berberine-treated broilers. The class given is in vivo. How it is done: (§1) Arbor Acres broilers (one day old) were purchased from the Liuhe Hatchery (Nanjing, Jiangsu, China). The broilers were provided a basal diet and water ad libitum and managed under the recommended humidity and temperature for 6 weeks. Then, 18 healthy broilers with similar body weight (b.w.) were randomly divided into three groups (6 broilers/group). Group I was administered phosphate-buffered saline for 24 h (control).
The broilers were divided into three experimental groups and drugs were administered as described above. Broilers were fasted for 12 h with free access to water before the perfusion experiment. Then, the animals were anesthetized with urethane intraperitoneally (0.5 mL/kg b.w.) and an incision was made through the abdominal cavity. A 10-cm intestinal segment was carefully exposed to air for intestinal perfusion. Two polyethylene cannulas were inserted through small slits at the proximal and distal ends (inlet and outlet). Initially, the intestinal segment was gently flushed with Krebs-Ringer buffer for about 30 min until a clear effluent flowed out. Then, Rho123 (1.5 ng/mL) solution was introduced into the loop at a constant flow rate of 0.2 mL/min. The intestinal fluid was collected in bottles at the outlet of the intestine at intervals of 10 min for up to 100 min. The lengths and internal radii of the intestinal segments were measured after all of the chickens were killed by cervical dislocation.
All samples were weighed and centrifuged for 10 min at 4500 rpm. The supernatants were filtered using a 0.22-μm filter (Millipore, Burlington, MA, USA) and samples were collected for analysis by high-performance liquid chromatography (HPLC).

For data set [1], the system named is chicken P-gp. Put plainly: Bidirectional transport of Rho123 across MDCK-chAbcb1 cell monolayer (P-gp inhibition). The class given is cell-based. As to conditions: for Papp A→B at 80 min, 4 mM: read-out: Papp AP→BL of Rho123. How it is done: (§2) The MDCK-chAbcb1 cell line stably expressing chicken P-gp was previously established in our laboratory. Briefly, the full-length chicken cDNA was first cloned into the pcDNA3.1 vector and then transfected into MDCK cells using Lipofectamine 2000. Single cells stably expressing chicken P-gp were collected using the limited dilution method in medium containing hygromycin B (100 μg/mL) to obtain the MDCK-chAbcb1 cell line. The cell line was cultured in Dulbecco’s modified Eagle’s medium containing 10% fetal bovine serum, antibiotics (100 IU/mL penicillin and 80 IU/mL streptomycin), and 50 μg/mL hygromycin B and incubated at 37 °C in humidified air with 5% CO2.
The samples were collected at 20, 40, 60, and 80 min from the receiving sides and analyzed by HPLC.
(§3) In the third equation, A is the membrane surface area of the filter, C0 is the initial concentration of the test drug, dQ is the amount of transported drug, and dt is the time elapsed. In the fourth equation, Papp B→A and Papp A→B are the apparent permeability coefficients for the basolateral-to-apical and apical-to-basolateral directions, respectively.
The inhibition rate was calculated using the following equation:(5) Inhibition rate=ERcontrol−ERtreatment/ERcontrol

For data set [2], the system named is chicken P-gp. In words: Bidirectional transport of veterinary drugs across MDCK-chAbcb1 cell monolayer with berberine. Conditions: for efflux ratio at 20 μM: chicken. How it is done:
as §2
Then, the samples collected from the receiving sides were subjected to an HPLC analysis. Of note, the transport periods for all of the drugs were determined by a preliminary experiment to avoid the saturation of P-gp.
The apparent permeability coefficients (Papp) and the efflux ratio (ER) were calculated as follows:(3) Papp=dQ/dt×1/(A×Co) (4) ER=Papp(B→A)/Papp(A→B)
as §3

The test system of another data set is Abcb1 mRNA. Put plainly: Abcb1 mRNA expression in the ileum of broilers by real-time RT-PCR after oral berberine. The class given is in vivo. As to conditions: berberine 40 and 80 mg/kg, 24 h, vs control, p < 0.01. The procedure:
as §1
GAPDH was used as an internal control.
On the technique in general: Real-time PCR tracks product formation cycle by cycle.

For data set [3], the system named is chicken xenobiotic receptor (CXR) mRNA. In words: CXR mRNA expression in the ileum of broilers by real-time RT-PCR after oral berberine. Conditions: berberine 40 and 80 mg/kg, 24 h, vs control, p < 0.01. Format: in vivo. The procedure:
Arbor Acres broilers (one day old) were purchased from the Liuhe Hatchery (Nanjing, Jiangsu, China). The broilers were provided a basal diet and water ad libitum and managed under the recommended humidity and temperature for 6 weeks. Then, 18 healthy broilers with similar body weight (b.w.) were randomly divided into three groups (6 broilers/group). Group I was administered phosphate-buffered saline for 24 h (control). […] Chicken treatment procedures were approved by the Science and Technology Agency of Jiangsu Province (approval no. 2017-0007, approval date: 15th, February, 2017) and performed in accordance with the guidelines of the Science and Technology Agency of Jiangsu Province and Nanjing Agricultural University. Broilers were divided into three experimental groups and drugs were administered as described above. At the end of experiments, animals were killed by decapitation. The ileum samples were collected immediately and stored at −80 °C for further tests. […] RNAs were quantified using a photometer (Eppendorf, Hamburg, Germany) at 260/280 nm. […] Chicken Abcb1 and chicken xenobiotic receptor (CXR) mRNAs were quantified using SYBR Green Realtime PCR Master Mix (Toyobo, Japan) on a real-time PCR detection system (Bio-Rad Laboratories, Hercules, CA, USA). […] Relative levels of Abcb1 and CXR were analyzed using the 2^−ΔΔCt method.

Data set [4] relates to chicken P-gp. Put plainly: Bidirectional transport of berberine across MDCK-chAbcb1 cell monolayer. The class given is in vitro ADME. Conditions: for efflux ratio at 4 h, 100 μM: chicken.
The nature of data set [5]: Bidirectional transport of berberine across MDCK parental cell monolayer. The class given is in vitro ADME. Conditions: dog.
Details of data set [6]: method as in data published in a Chinese journal, Figure S3. Conditions: broilers, berberine co-administration; ref data published in a Chinese journal, Figure S3; cited from earlier work.
Where [7] appears, read: chicken, control of 8 h series, no berberine.

What is called Papp is the rate of passage across a membrane or cell layer, normalised by area and donor concentration. The low end stands for poor permeation, the high end for ready permeation. Consider `COC(=O)c1ccccc1-c1c2ccc(=N)cc-2oc2cc(N)ccc12` [Rho123, rhodamine 123], for which the Papp at 100 min, 1.5 ng/mL with chicken intestinal P-gp (Arbor Acres, chicken, other: in situ single-pass intestinal perfusion) amounted to 123 ± 42 ×10⁻⁶ cm/s. Moreover, the “Ka of Rho123” value in the data set with chicken intestinal P-gp (control (no berberine), in situ perfusion, n = 6) stood at 1.12 ± 0.28 min⁻¹. Further, the efflux ratio at 2 h, 4 mM was found to be 7.28 ± 0.98 in the data set with chicken P-gp [1] (chicken, control of 2 h series, no berberine, read-out: Efflux ratio of Rho123) and 6.24 ± 0.7 in the data set with chicken P-gp [1] (chicken, control of verapamil series, verapamil 0 µM, read-out: Efflux Ratio of rhodamine 123). Further, the Papp A→B at 80 min, 4 mM in the data set on chicken P-gp [1] (chicken, control of 2 h series, no berberine) stood at 8.86 ± 1.38 ×10⁻⁶ cm/s; with chicken P-gp [1] (setting [7]) it was 8.62 ± 1.24 ×10⁻⁶ cm/s. The Papp B→A at 2 h, 4 mM with chicken P-gp [1] (chicken, control of 2 h series, no berberine, read-out: Papp BL→AP of Rho123) turned out to be 62.9 ± 7.69 ×10⁻⁶ cm/s; in the data set on chicken P-gp [1] (chicken, control of verapamil series, verapamil 0 µM, read-out: Papp BL→AP of rhodamine 123) it was 54.4 ± 4.34 ×10⁻⁶ cm/s. Moreover, the efflux ratio at 8 h, 4 mM in the data set on chicken P-gp [1] (setting [7]) came out at 7.24 ± 0.49. Moreover, in the data set with chicken P-gp [1] (chicken, control of 8 h series, no berberine, read-out: Papp BL→AP of Rho123), the Papp B→A at 8 h, 4 mM turned out to be 60.1 ± 5.13 ×10⁻⁶ cm/s. The Papp A→B at 2 h, 4 mM with chicken P-gp [1] (chicken, control of verapamil series, verapamil 0 µM, read-out: Papp AP→BL of rhodamine 123) was 8.04 ± 0.76 ×10⁻⁶ cm/s.

Turning to `Nc1ccc(S(=O)(=O)Nc2ncccn2)cc1` [sulfadiazine], the efflux ratio at 20 μM in the data set on chicken P-gp [2] came to 2.77.

Regarding `COc1ccc2cc3[n+](cc2c1OC)CCc1cc2c(cc1-3)OCO2` [berberine], in the data set on Abcb1 mRNA, the “Abcb1 mRNA level in the ileum” value is recorded as “significantly down-regulated”. Further, the “CXR mRNA level in the ileum” value in data set [3] was “significantly down-regulated”. For the same molecule, the “Rho123 concentrations in the perfusion fluid” value in the data set on chicken intestinal P-gp (berberine 40 and 80 mg/kg, 24 h, vs control, p < 0.05) is given as “obvious decrease”. For the same molecule, the “Inhibition rate (of Rho123 efflux ratio)” value with chicken P-gp [1] (berberine 5 μM, 2 h) stood at 41.48%; with chicken P-gp [1] (berberine 5 μM, 8 h), 39.64%; with chicken P-gp [1] (berberine 20 μM, 2 h), 53.3%; with chicken P-gp [1] (berberine 20 μM, 2 h, listed as Berberine), 53.30%; in the data set on chicken P-gp [1] (berberine 20 μM, 8 h), 62.57%; in the data set on chicken P-gp [1] (berberine 40 μM, 2 h), 73.6%. For the same molecule, the “Inhibition rate (of Rho123 efflux ratio)” value in the data set on chicken P-gp [1] (berberine 40 μM, 2 h, listed as Berberine) turned out to be 73.63%; in the data set on chicken P-gp [1] (berberine 40 μM, 8 h), 68.23%. Moreover, the ER of sulfadiazine result in the data set with chicken P-gp [2] (berberine 20 μM, 2 h pre-incubation, sulfadiazine 20 μM) is on record as “did not obviously alter the ER”. The “Transport ratio (r) of berberine” value with chicken P-gp [4] (MDCK-chAbcb1 cells, without verapamil, berberine 100 μM, 4 h) worked out at 4.2. The efflux ratio at 4 h, 100 μM stood at 4.2 in the data set with chicken P-gp [4], 1.13 in the data set with chicken P-gp [4] (with verapamil 100 μM), 1.24 in data set [5] and 1.21 in data set [5] (with verapamil 100 μM). Moreover, the “Bioavailability of orally administered enrofloxacin” value in data set [6] was “increases the bioavailability”.

For the molecule `CC[C@H]1OC(=O)C[C@@H](O)[C@H](C)[C@@H](O[C@@H]2O[C@H](C)[C@@H](O)[C@H](N(C)C)[C@H]2O)[C@@H](CCN2C[C@H](C)C[C@H](C)C2)C[C@@H](C)C(=O)/C=C/C(C)=C/[C@@H]1CO[C@@H]1O[C@H](C)[C@@H](O)[C@@H](OC)[C@H]1OC` [tilmicosin], in the data set on chicken P-gp [2], the efflux ratio at 20 μM worked out at 4.26.

In the case of `CCN1CCN(c2cc3c(cc2F)c(=O)c(C(=O)O)cn3C2CC2)CC1` [enrofloxacin], the efflux ratio at 20 μM with chicken P-gp [2] worked out at 2.01.
